Test [1] addresses T1, full-length HAQ STING (Homo sapiens, UniProt Q86WV6, G230A/H232R/R293Q/R71H).
T1 construct: AviTag (after GG linker) (C); HRV3C cleavage site (after GS linker) (C); HIS8 (C); made in house; host or cells: Trichoplusia ni (Hi-Five) insect cells infected with baculovirus (virus generated and amplified in Sf21 cells); used as a washed membrane preparation
As to the kind of experiment: 3H-cGAMP filtration binding assay (HAQ STING). As to conditions: competition with tritiated cGAMP, HAQ STING membrane. The text has this: The ability of compounds to bind STING is quantified by the ability to compete with tritiated cGAMP ligand for human STING receptor membrane using a radioactive filter-binding assay. The binding assay employs STING receptor obtained from Hi-Five cell membranes overexpressing full-length HAQ STING prepared in-house and tritiated cGAMP ligand also purified in-house.
The ability of compounds to bind STING is quantified by their ability to compete with tritiated cGAMP ligand for human STING receptor membrane using a radioactive filter-binding assay. The binding assay employs STING receptor obtained from Trichoplusia ni cell membranes (T. ni; Expression Systems, cat #94-002F, www.expressionsystems.com) overexpressing full-length HAQ STING and tritiated cGAMP ligand.
The basic HAQ STING filtration assay protocol is as follows:
The compounds were serially titrated by the Hamilton STARPlus CORE in a 96-well plate (Greiner, #651201) using a 1:3 ten-point dose response format. After compound preparation, a 2.2 ug/ml working concentration of STING membrane (SEQ. ID. No. 1) was prepared by diluting concentrated membrane into assay buffer (1×PBS; Invitrogen # SH30028.02) and douncing 7× using a manual tissue homogenizer (Wheaton, #357546). 148 uL of prepared membrane was then manually added to each well of a 96-well deep-well polypropylene plate (Fisher Scientific, #12-566-121). Following membrane addition, 2 uL of either titrated test compound, DMSO control (Sigma #276855), or cold cGAMP control was added to the appropriate wells using a BIOMEK FX. Compound and membrane then preincubated for 60 min at RT to allow compound binding to equilibrate. Following equilibration, 8 nM of [^3H]c-GAMP ligand was prepared by diluting into assay buffer, and 50 uL of this working stock was then manually added to each well of the assay plate. Plates were then incubated at RT for 60 min, and the contents of each assay plate were then filtered through a 96-well GF/B filter plate (PerkinElmer, #6005250) using a TOMTEC MACH III Cell Harvester equipped with 20 mM HEPES buffer (Fisher Scientific, # BP299500). The filter plates were then dried at 55° C. for 30 min using a pressurized oven before 30 uL of ULTIMA GOLD F scintillate was added to each well. Tritium levels for each reaction well were then measured using a PerkinElmer TopCount plate reader.
(§1) After normalization to controls, the percent activity for each compound concentration was calculated by measuring the amount of remaining radioactivity. The plot of percent activity versus the log of compound concentration was fit with a 4-parameter dose response equation to calculate EC50 values.

The target in test [2] is T2, full-length WT STING (Homo sapiens, UniProt Q86WV6, H232R).
T2 construct: AviTag (after gg linker) (C); HRV3C cleavage site (after gs linker) (C); HIS8 (C); made in house; host or cells: Trichoplusia ni (Hi-Five) insect cells infected with baculovirus (virus generated and amplified in Sf21 cells); used as a washed membrane preparation
T2 sequence (Q86WV6 with tags, fused parts or gaps H232R): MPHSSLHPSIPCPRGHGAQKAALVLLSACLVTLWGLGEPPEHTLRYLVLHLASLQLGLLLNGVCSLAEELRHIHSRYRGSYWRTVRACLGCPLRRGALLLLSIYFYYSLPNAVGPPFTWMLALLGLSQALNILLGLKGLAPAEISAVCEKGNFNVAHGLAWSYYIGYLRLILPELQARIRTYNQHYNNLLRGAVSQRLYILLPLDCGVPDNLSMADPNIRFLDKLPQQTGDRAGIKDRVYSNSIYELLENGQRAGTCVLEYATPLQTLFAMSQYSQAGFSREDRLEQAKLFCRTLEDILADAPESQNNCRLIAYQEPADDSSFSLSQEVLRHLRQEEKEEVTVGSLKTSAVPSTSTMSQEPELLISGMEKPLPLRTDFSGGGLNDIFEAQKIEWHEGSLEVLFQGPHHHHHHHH
As to the kind of experiment: 3H-cGAMP filtration binding assay (WT STING). Particulars: competition with tritiated cGAMP, WT STING membrane. Here is the method:
The ability of compounds to bind STING is quantified by their ability to compete with tritiated cGAMP ligand for human STING receptor membrane using a radioactive filter-binding assay. The binding assay employs STING receptor obtained from Trichoplusia ni cell membranes (T. ni; Expression Systems, cat #94-002F, www.expressionsystems.com) overexpressing full-length WT STING and tritiated cGAMP ligand.
The basic WT STING filtration assay protocol is as follows:
16 nM of [^3H] c-GAMP ligand was prepared by diluting into assay buffer, and 50 uL of this working stock was manually added to each well of the assay plate. After ligand addition, 2 uL of either titrated test compound, DMSO control (Sigma #276855), or cold cGAMP control was added to the appropriate wells using a BIOMEK FX. The serially titrated compound was prepared on a Hamilton STARPlus CORE in a 96-well plate (Greiner, #651201) using a 1:3 ten-point dose response format. Following compound addition, a 2.2 ug/ml working concentration of STING membrane (SEQ. ID. No. 3) was prepared by diluting concentrated membrane into assay buffer (1×PBS; Invitrogen # SH30028.02) and douncing 7× using a manual tissue homogenizer (Wheaton, #357546). 148 uL of this prepared membrane was then manually added to each well of a 96-well deep-well polypropylene plate (Fisher Scientific, #12-566-121). Compound, ligand, and membrane then incubated for 60 min at RT before the contents of each assay plate were filtered through a 96-well GF/B filter plate (PerkinElmer, #6005250) using a TOMTEC MACH III Cell Harvester equipped with 20 mM HEPES buffer (Fisher Scientific, # BP299500). The filter plates were then dried at 55° C. for 30 min using a pressurized VWR oven before 30 uL of ULTIMA GOLD F scintillate was added to each well. Tritium levels for each reaction well were then measured using a PerkinElmer TopCount plate reader.
as §1

The subject of test [3] is secretion of interferon-beta from THP1 cells. As to the kind of experiment: IFN-β secretion in THP1 cell culture (5 h). It counts as cell-based. Particulars: Homo sapiens, THP-1, 5 h, compound at 30 μM, 30 uM cGAMP = 100%, read-out: % Effect at 30 μM relative to 2′3′-cGAMP. Here is the method:
The ability of compounds to stimulate the secretion of interferon-beta from THP1 cells was measured using a human IFN-β AlphaLISA kit (Perkin Elmer, Cat. No. AL265F). The basic protocol is as follows:
A Labcyte Echo 550 acoustic dispenser was used to transfer 120 nL of compound dissolved in DMSO into the wells of an empty, sterile 384-well microplate, (Corning, Cat. No. 3712). THP1 cells (American Type Culture Collection, Cat. No. TIB202) previously frozen in Recovery Medium (Life Technologies, Cat. No. 12648-010) were thawed and immediately diluted 10-fold into 37° C. assay medium (RPMI 1640+L-Glutamine & phenol red, Life Technologies, Cat. No. 11875-085; 0.5% heat inactivated fetal bovine serum, Sigma Aldrich, Cat. No. F4135; 1 mM Sodium Pyruvate, Life Technologies, Cat. No. 11360-070; 1× non-essential amino acids; Life Technologies, Cat. No. 11140-050). The cell viability and count was ascertained using a Beckman Coulter V-Cell XR cell counter. The cells suspension was centrifuged at 200×g for 5 min at RT. Cells were resuspended to a density of 0.8×10^6/mL in 37° C. assay medium. Subsequent liquid transfers were performed using either a Matrix electronic multichannel pipette or an Agilent Bravo Automated Liquid Handling Platform.
The assay was started by dispensing 40 μL of the previously prepared cell suspension into the wells of the plate containing compounds. After 5 h incubation at 37° C., 5% CO2 in a humidified atmosphere, the plate of cells and compounds was centrifuged at 200×g for 5 min at RT. From each well, 5 μL of supernatant was transferred into corresponding wells of a white 384-well plate (Perkin Elmer, Cat. No. 6005620). To these supernatant-containing wells was added 10 μL of 5× Anti-Analyte Acceptor beads (50 μg/mL of AlphaLISA HiBlock Buffer) and incubated for 30 min at RT while shaking on an orbital plate shaker. To each well was added 10 μL of 5× Biotinylated Antibody Anti-analyte (5 nM in AlphaLISA HiBlock Buffer) and incubated on an orbital plate shaker for 60 min at RT or overnight at 4° C. To each well was added 25 μL of 2× SA-Donor beads (80 μg/mL in AlphaLISA HiBlock Buffer) and incubated for 30-45 min at RT in the dark while shaking on an orbital plate shaker. The plate was then read on a Perkin Elmer Envision (λex=680 nm, […]). The percent effect of the AlphaLISA signal at each compound concentration was calculated based on 30 uM cGAMP positive controls and 0.3% DMSO negative controls. The plot of percent effect versus the log of compound concentration was fit with a 4-parameter concentration response equation to calculate EC50 values. The test compounds were tested at concentrations 30000, 10000, 3333, 1111, 370.4, 123.4, 41.2, 13.7, 4.6, and 1.5 nM with 0.3% residual DMSO. The control compound, cGAMP was tested at concentrations 100000, 33333, 11111, 3704, 1235, 412, 137, 46, and 15 nM with 0.3% residual DMSO.
Compounds of the disclosure were evaluated for IFN-β secretion in THP1 cell culture as described above. The following table tabulates the biological data for these compounds as percent activation relative to 2′3′-cGAMP at the 30 µM concentration.

Usually EC50 stands for the concentration that produces a half-maximal response. Read a low EC50 as greater potency.

T1 sequence (Q86WV6 with tags, fused parts or gaps R71H/G230A/H232R/R293Q): as the sequence (Q86WV6 with tags, fused parts or gaps H232R) above, with R71H, G230A, R293Q counted along it

Turning to `COc1cc2sc(C(=O)CCC(=O)O)cc2cc1OCCCc1ccc2sc(C(=O)CCC(=O)O)cc2c1` [Example 6, 4-(5-(3-((2-(3-carboxypropanoyl)-6-methoxybenzo [b]thiophen-5-yl)oxy)propyl)benzo[b]thiophen-2-yl)-4-oxobutanoic acid], the EC50 in test [1] turned out to be 53 nM; in test [2], 206 nM. For the same compound, the activation at 30 µM in test [3] was found to be 106%.

Take `COc1cc2sc(C(=O)CCC(=O)O)cc2cc1OCCc1nc2cc(C(=O)CCC(=O)O)sc2cc1OC` [Example 7, 4-(5-(2-((2-(3-carboxypropanoyl)-6-methoxybenzo [b]thiophen-5-yl)oxy)ethyl)-6-methoxythieno[3,2-b]pyridin-2-yl)-4-oxobutanoic acid]: the EC50 in test [1] amounted to 17 nM; in test [2], 71 nM. In addition, in test [3], the activation at 30 µM was 97%.

For `COc1cc2sc(C(=O)CCC(=O)O)cc2nc1CCOc1nc2cc(C(=O)CCC(=O)O)sc2cc1OC` [Example 8, 4-(5-(2-(2-(3-carboxypropanoyl)-6-methoxythieno[3,2-b]pyridin-5-yl)ethoxy)-6-methoxythieno[3,2-b]pyridin-2-yl)-4-oxobutanoic acid], the values for the EC50 in test [1] and in test [2] were 12 nM and 76 nM, respectively. For the same compound, the activation at 30 µM in test [3] was found to be 99%.

For `COc1cc2sc(C(=O)CCC(=O)O)nc2cc1OCCc1nc2cc(C(=O)CCC(=O)O)sc2cc1OC` [Example 9, 4-(5-(2-((2-(3-carboxypropanoyl)-6-methoxybenzo[d]thiazol-5-yl)oxy)ethyl)-6-methoxythieno[3,2-b]pyridin-2-yl)-4-oxobutanoic acid], the values for the concentration giving a half-maximal response (EC50) in test [1] and in test [2] were 116 nM and 322 nM, respectively. In addition, the activation at 30 µM in test [3] was determined as 48%.

Consider `COc1cc2sc(C(=O)CCC(=O)O)cc2cc1CCCOc1nc2cc(C(=O)CCC(=O)O)sc2cc1OC` [Example 10, 4-(5-(3-(2-(3-carboxypropanoyl)-6-methoxybenzo [b]thiophen-5-yl)propoxy)-6-methoxythieno[3,2-b]pyridin-2-yl)-4-oxobutanoic acid], for which the results for the EC50 in test [1] and in test [2] were 123 nM and 421 nM, respectively. Also, in test [3], the activation at 30 µM was determined as 134%.

As for `COc1cc2sc(C(=O)CCC(=O)O)cc2cc1OCCOc1ccc2sc(C(=O)CCC(=O)O)cc2c1` [Example 11, 4-(5-(2-((2-(3-carboxypropanoyl)-6-methoxybenzo [b]thiophen-5-yl)oxy)ethoxy)benzo[b]thiophen-2-yl)-4-oxobutanoic acid], the EC50 is 1760 nM in test [1] and 4560 nM in test [2]. Further, in test [3], the activation at 30 µM was 7%.

With `COc1cc2sc(C(=O)CCC(=O)O)cc2cc1OCCCc1nc2cc(C(=O)CCC(=O)O)sc2cc1OC` [Example 13, 4-(5-(3-((2-(3-carboxypropanoyl)-6-methoxybenzo[b]thiophen-5-yl)oxy)propyl)-6-methoxythieno[3,2-b]pyridin-2-yl)-4-oxobutanoic acid], the EC50 stood at 158 nM in test [1] and 625 nM in test [2]. The activation at 30 µM in test [3] worked out at 67%.

`COc1cc2sc(C(=O)C[C@H](C)C(=O)O)cc2cc1CCCOc1nc2cc(C(=O)CCC(=O)O)sc2cc1OC` [Example 14, (S)-4-(5-(3-((2-(3-carboxypropanoyl)-6-methoxythieno[3,2-b]pyridin-5-yl)oxy)propyl)-6-methoxybenzo[b]thiophen-2-yl)-2-methyl-4-oxobutanoic acid]: the EC50 was found to be 3 nM in test [1] and 21 nM in test [2]. For the same compound, in test [3], the activation at 30 µM was 77%.

For `COc1cc2sc(C(=O)C[C@H](C)C(=O)O)cc2cc1OCCCc1nc2cc(C(=O)CCC(=O)O)sc2cc1OC` [Example 15, (S)-4-(5-(3-(2-(3-carboxypropanoyl)-6-methoxythieno [3,2-b]pyridin-5-yl)propoxy)-6-methoxybenzo[b]thiophen-2-yl)-2-methyl-4-oxobutanoic acid], the concentration giving a half-maximal response (EC50) in test [1] turned out to be 107 nM; in test [2], 615 nM. The activation at 30 µM in test [3] stood at 114%.

Values taken from patent US10793557B2, “Sting agonist compounds” (Merck Sharp & Dohme Corp., priority 2018, dated 2020).
